Paper PMC8286840, “Identifying SARS-CoV-2 antiviral compounds by screening for small molecule inhibitors of Nsp3 papain-like protease” (Biochemical Journal, 2021)
Structures can show the parent of a compound that is named as a salt. Where two headings read alike, the source gives them in different places.

What was measured:
[1] = biological target: T1, SARS-CoV-2 PLpro (nsp3 1564–1878) (Severe acute respiratory syndrome coronavirus 2, UniProt P0DTD1); test: biochemical; design: FRET-quenched peptide (Pro3) cleavage by PLpro, 10 min pre-incubation, slope over 20 min, normalised to no-compound control; settings: low concentration screen, read-out: % of control remaining
[2] = biological target: T1, SARS-CoV-2 PLpro (nsp3 1564–1878); test: biochemical; design: FRET-quenched peptide (Pro3) cleavage by PLpro, 10 min pre-incubation, slope over 20 min, normalised to no-compound control; settings: high concentration screen, read-out: % of control remaining

## COc1ccc2c(c1OC)C(=O)O[C@@H]2[C@H]1c2c(cc3c(c2OC)OCO3)CCN1C (racemic)
[1]; Well no.=3446
  remaining activity at 1.25 µM: 92.3%
[2]; Well no.=3446
  remaining activity at 3.75 µM: 90.7%

## CCCN1CCO[C@@H]2c3cc(O)ccc3OC[C@H]21 (racemic)
[1]; Well no.=1505
  remaining activity at 1.25 µM: 96%
[2]; Well no.=1505
  remaining activity at 3.75 µM: 96.1%

## CC(C)NCC(O)COc1ccc(COCCOC(C)C)cc1 (racemic)
[1]; Well no.=6415
  remaining activity at 1.25 µM: 99.2%
[2]; Well no.=6415
  remaining activity at 3.75 µM: 93.2%

## CCCCCC(O)/C=C/C=C\CCCCCCCC(=O)O (racemic)
[1]; Well no.=4382
  remaining activity at 1.25 µM: 99.2%
[2]; Well no.=4382
  remaining activity at 3.75 µM: 96.6%

## C[C@H]1CC[C@@H]2[C@@H](C)[C@H]3[C@H](C[C@H]4[C@@H]5CC=C6C[C@@H](O[C@@H]7O[C@H](CO)[C@H](O)[C@H](O[C@@H]8O[C@H](CO)[C@@H](O)[C@H](O)[C@H]8O)[C@H]7O[C@H]7O[C@@H](C)[C@H](O)[C@@H](O)[C@H]7O)CC[C@]6(C)[C@H]5CC[C@]34C)N2C1 (racemic)
[1]; Well no.=3465
  remaining activity at 1.25 µM: 105%
[2]; Well no.=3465
  remaining activity at 3.75 µM: 105%

## CCCN1CCC[C@@H]2Cc3n[nH]cc3C[C@H]21 (racemic)
[1]; Well no.=1461
  remaining activity at 1.25 µM: 91%
[2]; Well no.=1461
  remaining activity at 3.75 µM: 88.7%

## O=C1c2c(O)cc(O)cc2O[C@H](c2ccc(O)c(O)c2)[C@H]1O (racemic)
[1]; Well no.=1527
  remaining activity at 1.25 µM: 95.9%
[2]; Well no.=1527
  remaining activity at 3.75 µM: 96.7%

## c1cncc([C@@H]2CCCCN2)c1 (racemic)
[1]; Well no.=3477
  remaining activity at 1.25 µM: 102%
[2]; Well no.=3477
  remaining activity at 3.75 µM: 99.3%

## C[N+](C)(C)CC(O)CC(=O)[O-] (racemic)
[1]; Well no.=3402
  remaining activity at 1.25 µM: 88.4%
[2]; Well no.=3402
  remaining activity at 3.75 µM: 86.6%

## CC1=CC(=O)CC(C)(C)C1(O)/C=C/C(C)=C\C(=O)O (racemic)
[1]; Well no.=3152
  remaining activity at 1.25 µM: 101%
[2]; Well no.=3152
  remaining activity at 3.75 µM: 102%

## CNCC(O)c1ccc(O)cc1 (racemic)
[1]; Well no.=1356
  remaining activity at 1.25 µM: 102%
[2]; Well no.=1356
  remaining activity at 3.75 µM: 104%

## C=CC(N)CCC(=O)O (racemic)
[1]; Well no.=1528
  remaining activity at 1.25 µM: 98.8%
[2]; Well no.=1528
  remaining activity at 3.75 µM: 96.6%

## CCCN(CCc1ccccc1)C1CCc2c(O)cccc2C1 (racemic)
[1]; Well no.=1357
  remaining activity at 1.25 µM: 102%
[2]; Well no.=1357
  remaining activity at 3.75 µM: 103%

## CCCCCC(O)/C=C/C=O (racemic)
[1]; Well no.=4337
  remaining activity at 1.25 µM: 104%
[2]; Well no.=4337
  remaining activity at 3.75 µM: 102%

## CCCCC/C=C\C/C=C\C/C=C\C=C\C1CCCC(=O)O1 (racemic)
[1]; Well no.=4277
  remaining activity at 1.25 µM: 105%
[2]; Well no.=4277
  remaining activity at 3.75 µM: 102%

## OC1CCCCC1N1CCC(c2ccccc2)CC1 (racemic)
[1]; Well no.=1290
  remaining activity at 1.25 µM: 101%
[2]; Well no.=1290
  remaining activity at 3.75 µM: 97.9%

## CCCCCCCCCCCCCC(=O)O[C@@H]1[C@@H](C)[C@@]2(O)[C@@H](C=C(CO)C[C@@]3(O)C(=O)C(C)=C[C@@H]23)[C@@H]2C(C)(C)[C@]12OC(C)=O (racemic)
[1]; Well no.=3080
  remaining activity at 1.25 µM: 98.8%
[2]; Well no.=3080
  remaining activity at 3.75 µM: 98.9%

## CCCCCCCN[C@H]1CCC[C@@H]1CCCCCCC(=O)O (racemic)
[1]; Well no.=4531
  remaining activity at 1.25 µM: 95.3%
[2]; Well no.=4531
  remaining activity at 3.75 µM: 98%

## COC1=CC(=O)O[C@@H](/C=C/c2ccccc2)C1 (racemic)
[1]; Well no.=3371
  remaining activity at 1.25 µM: 92.9%
[2]; Well no.=3371
  remaining activity at 3.75 µM: 95.8%

## CCCCC[C@H](O)/C=C/[C@@H]1[C@@H](C/C=C\CCCC(=O)O)[C@H](O)C[C@H]1O (racemic)
[1]; Well no.=4479
  remaining activity at 1.25 µM: 101%
[2]; Well no.=4479
  remaining activity at 3.75 µM: 101%

## CCCCC/C=C\C=C\C(O)CCCCCCCC(=O)O (racemic)
[1]; Well no.=4378
  remaining activity at 1.25 µM: 103%
[2]; Well no.=4378
  remaining activity at 3.75 µM: 103%

## O=C(NC(NC(=S)Nc1ccc(F)c([N+](=O)[O-])c1)C(Cl)(Cl)Cl)C(c1ccccc1)c1ccccc1 (racemic)
[1]; Well no.=2588
  remaining activity at 1.25 µM: 94.8%
[2]; Well no.=2588
  remaining activity at 3.75 µM: 93.4%

## COc1ccc(CCN(C)CCCC(C#N)(c2ccc(OC)c(OC)c2)C(C)C)cc1OC (racemic)
[1]; Well no.=1336
  remaining activity at 1.25 µM: 104%
[2]; Well no.=1336
  remaining activity at 3.75 µM: 101%

## NC(Cc1cc(O)c(O)cc1O)C(=O)O (racemic) [6-Hydroxy-DL-DOPA]
[1]; Well no.=752
  remaining activity at 1.25 µM: 88.3%
[2]; Well no.=752
  remaining activity at 3.75 µM: 89.4%

## NCC(O)c1ccc(O)cc1 (racemic) [(+,-)-Octopamine HCl]
[1]; Well no.=5038
  remaining activity at 1.25 µM: 101%
[2]; Well no.=5038
  remaining activity at 3.75 µM: 103%

## CCCC(=O)OC(CNC(C)(C)C)COc1nsnc1N1CCOCC1 (racemic) [(RS)-Butyryltimolol]
[1]; Well no.=7133
  remaining activity at 1.25 µM: 102%
[2]; Well no.=7133
  remaining activity at 3.75 µM: 96.2%

## CC(N)(C(=O)O)c1ccc(C(=O)O)cc1 (racemic) [(RS)-MCPG]
[1]; Well no.=8575
  remaining activity at 1.25 µM: 109%
[2]; Well no.=8575
  remaining activity at 3.75 µM: 102%

## CN1C[C@@H]2c3ccccc3Oc3ccc(Cl)cc3[C@H]2C1 (racemic) [Asenapine (hydrochloride)]
[1]; Well no.=7661
  remaining activity at 1.25 µM: 101%
[2]; Well no.=7661
  remaining activity at 3.75 µM: 97%

## CN1C[C@@H]2c3ccccc3Oc3ccc(Cl)cc3[C@H]2C1 (racemic) [Asenapine (maleate)]
[1]; Well no.=6513
  remaining activity at 1.25 µM: 102%
[2]; Well no.=6513
  remaining activity at 3.75 µM: 103%

## C[C@H](Cc1ccc(OCC(=O)O)cc1)NC[C@H](O)c1cccc(Cl)c1 (racemic) [BRL 37344 sodium]
[1]; Well no.=183
  remaining activity at 1.25 µM: 98%
[2]; Well no.=183
  remaining activity at 3.75 µM: 103%

## COc1cc(N)c(Cl)cc1C(=O)N[C@@H]1CCN(CCCOc2ccc(F)cc2)C[C@@H]1OC (racemic) [Cisapride]
[1]; Well no.=6909
  remaining activity at 1.25 µM: 91.7%
[2]; Well no.=6909
  remaining activity at 3.75 µM: 90.7%

## O=C(O)C(O)Cc1ccccc1 (racemic) [DL-3-Phenyllactic acid]
[1]; Well no.=7171
  remaining activity at 1.25 µM: 102%
[2]; Well no.=7171
  remaining activity at 3.75 µM: 99.8%

## CNCC(O)c1ccc(O)c(O)c1 (racemic) [DL-Adrenaline]
[1]; Well no.=5278
  remaining activity at 1.25 µM: 96.6%
[2]; Well no.=5278
  remaining activity at 3.75 µM: 94.3%

## CCCCS(=N)(=O)CCC(N)C(=O)O (racemic) [DL-Buthionine-[S,R]-sulfoximine]
[1]; Well no.=363
  remaining activity at 1.25 µM: 96.1%
[2]; Well no.=363
  remaining activity at 3.75 µM: 93.8%

## NC1CONC1=O (racemic) [DL-Cycloserine]
[1]; Well no.=136
  remaining activity at 1.25 µM: 109%
[2]; Well no.=136
  remaining activity at 3.75 µM: 108%

## NC(Cc1ccc(O)c(O)c1)C(=O)O (racemic) [DL-Dopa]
[1]; Well no.=6391
  remaining activity at 1.25 µM: 106%
[2]; Well no.=6391
  remaining activity at 3.75 µM: 107%

## CCCC(N)C(=O)O (racemic) [DL-Norvaline]
[1]; Well no.=7399
  remaining activity at 1.25 µM: 108%
[2]; Well no.=7399
  remaining activity at 3.75 µM: 108%
[2]; Well no.=8563
  remaining activity at 3.75 µM: 109%

## CCCCCCCCCCCCCCCC(=O)N[C@H](CN1CCOCC1)[C@H](O)c1ccccc1 (racemic) [DL-PPMP]
[1]; Well no.=4591
  remaining activity at 1.25 µM: 93.5%
[2]; Well no.=4591
  remaining activity at 3.75 µM: 100%
